One experiment deals with T1, α1A receptor (Homo sapiens, UniProt P35348).
T1 construct: expressed in transfected cells
Put plainly: Competitive antagonist activity, adrenergic α1A. The class given is cell-based. The conditions noted are these: read-out: IC50, α1A antagonism.

Another experiment concerns Calcitonin (AM1/AM2). The experiment in a line: Calcitonin (AM1/AM2) cAMP HTRF assays. The class given is cell-based, human. The protocol:
Cells expressing the human recombinant receptor of interest were grown in media without antibiotic and detached by gentle flushing with PBS-EDTA (5 mM EDTA), recovered by centrifugation and resuspended in assay buffer (KRH: 5 mM KCl, 1.25 mM MgSO4, 124 mM NaCl, 25 mM HEPES, 13.3 mM glucose, 1.25 mM KH2PO4, 1.45 mM CaCl2, 0.5 g/L BSA). Dose response curves were performed in parallel with the reference compounds. For agonist tests (96-well plates), 12 μL of cells was mixed with 12 μL of the test compound at increasing concentrations and then incubated for 30 minutes at room temperature. Lysis buffer was added and after a 1 hour incubation, cAMP concentrations was determined according to the manufacturer specification with the HTRF kit. […] Lysis buffer was added and after a 1 hour incubation, cAMP concentrations were determined according to the manufacturer specification, with the HTRF kit.
Cells expressing the human recombinant receptor of interest were grown in media without antibiotic and detached by gentle flushing with PBS-EDTA (5 mM EDTA), recovered by centrifugation and resuspended in assay buffer (KRH: 5 mM KCl, 1.25 mM MgSO4, 124 mM NaCl, 25 mM HEPES, 13.3 mM glucose, 1.25 mM KH2PO4, 1.45 mM CaCl2, 0.5 g/L BSA). […] Lysis buffer was added and after a 1 hour incubation, cAMP concentrations was determined according to the manufacturer specification with the HTRF kit. […]

For the next experiment, the target named is T2, OX1 (Homo sapiens, UniProt O43613).
T2 construct: expressed in transfected cells; host or cells: CHO-AEQ (CHO-K1 with mitochondrial apoaequorin)
The experiment in a line: Orexin receptor Aequorin assay. The class given is cell-based. The conditions noted are these: antagonism. The protocol: CHO-K1 cells coexpressing mitochondrial apoaequorin and the recombinant human receptor of interest were grown to mid-log phase in culture media without antibiotics and then detached with PBS-EDTA, centrifuged and resuspended in assay buffer (DMEM/HAM's F12 with HEPES, without phenol red+0.1% BSA, protease free) at a concentration of 1×10^6 cell/mL. Cells were incubated at room temperature for at least 4 hours with coelenterazine h. Reference agonist/antagonist was tested to evaluate the performance of the assay and to determine EC50/IC50.
50 μL of the cell suspension was mixed with 50 μL of test or reference agonist in a 96-well plate. […] For antagonist testing, 100 μL of the reference agonist at its EC80 was injected on the mix of cells and test compound, following an incubation of 15 minutes after the first injection. The resulting emission of light was r recorded using Hamamatsu Functional Drug Screening System 6000 (FDSS 6000) luminometer. To standardize the emission of recorded light (and determine of the “100% signal”) across plates and across different experiments, some wells contained 100 μM digitonin or a saturating concentration of ATP (20 μM).

T1 sequence (P35348 whole entry): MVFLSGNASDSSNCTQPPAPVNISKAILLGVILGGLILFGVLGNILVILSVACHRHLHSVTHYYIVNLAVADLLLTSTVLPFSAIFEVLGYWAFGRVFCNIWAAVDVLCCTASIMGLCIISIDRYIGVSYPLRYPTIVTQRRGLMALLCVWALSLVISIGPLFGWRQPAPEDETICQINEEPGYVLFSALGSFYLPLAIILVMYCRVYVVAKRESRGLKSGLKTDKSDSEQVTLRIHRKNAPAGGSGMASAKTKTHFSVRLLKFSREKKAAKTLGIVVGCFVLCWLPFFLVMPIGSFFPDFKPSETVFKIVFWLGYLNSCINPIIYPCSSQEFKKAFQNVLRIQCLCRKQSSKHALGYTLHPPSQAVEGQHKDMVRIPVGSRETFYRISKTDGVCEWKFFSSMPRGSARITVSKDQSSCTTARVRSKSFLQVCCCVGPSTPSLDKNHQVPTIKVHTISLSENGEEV
T2 sequence (O43613 whole entry): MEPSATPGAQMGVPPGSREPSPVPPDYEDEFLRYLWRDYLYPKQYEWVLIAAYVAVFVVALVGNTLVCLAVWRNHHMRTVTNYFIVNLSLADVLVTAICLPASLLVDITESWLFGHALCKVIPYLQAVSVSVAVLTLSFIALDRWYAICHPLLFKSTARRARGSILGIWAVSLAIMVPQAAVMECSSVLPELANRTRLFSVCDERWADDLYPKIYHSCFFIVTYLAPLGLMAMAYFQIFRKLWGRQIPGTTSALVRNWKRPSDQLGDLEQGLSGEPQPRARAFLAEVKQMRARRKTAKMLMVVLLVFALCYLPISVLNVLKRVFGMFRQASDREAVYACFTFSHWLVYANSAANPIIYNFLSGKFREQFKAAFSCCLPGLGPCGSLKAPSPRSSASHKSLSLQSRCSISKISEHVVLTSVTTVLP

As a reminder, the IC50 is the concentration that gives 50% inhibition. `CN1C[C@H](C(=O)N[C@]2(C)O[C@@]3(O)[C@@H]4CCCN4C(=O)[C@H](Cc4ccccc4)N3C2=O)CC2c3cccc4[nH]c(C(F)(F)F)c(c34)CC21` (stereo partly drawn) [2-CF3-dihydroergotamine]: the figures for the IC50 on α1A receptor and against OX1 were 207 nM and more than 10000 nM, respectively. The “Activity (Agonism: EC50; Antagonism: IC50)” value with Calcitonin (AM1/AM2) is on record as “Inactive”.

The values are drawn from patent publication US20150133456A1, “FLUOROERGOLINE DERIVATIVES AND USES THEREOF” (MAP PHARMACEUTICALS, INC., priority 2012, published 2015).
